“Also recorded” adds a separate entry of the source. Non-standard residues stand in square brackets, D forms with d. No end group written: not given here. Aib = CC(C)(N)C(=O)O
How the values were obtained:
[1] = CD (circular dichroism) spectroscopy of α-helix structure; format: physicochemical
Method: To evaluate the structures of a linear plasmid DNA and peptides, CD spectra were analyzed using a Chirascan CD spectrometer (Applied Photophysics, UK). […] The final concentration of the linear plasmid DNA was 30 ng/μL. All the samples were dissolved in H2O. For the formation of the artificial chromosome, a mixture of the peptide and the DNA was incubated for 12 days or longer. Scanning was performed using a 2-mm path-length cuvette. Each scan was repeated three times and averaged. MRE (mean residue ellipticity) was calculated based on the number of amino acid residues.
CD (circular dichroism) spectroscopy was performed as follows.
The CD spectra were analyzed using a Chirascan CD spectrometer (Applied Photophysics, UK). […] All the samples were dissolved in H2O. Each scan was repeated three times using a 2-mm path-length cuvette and averaged. MRE (mean residue ellipticity) was calculated based on the number of amino acid residues.

[2] = AFM analysis of self-assembled peptide complexes; format: physicochemical; conditions: for Average diameter (nm) / AFM morphology: Table 12, self-assembled structure; for AFM morphology: 25 μM in distilled water
Method: AFM was performed using an NX10 system (Park Systems, Korea) in a non-contact mode with PPP-NCHR AFM probes (Nanosensors, Switzerland). The DNA concentration ranged from 1 to 30 ng/μL and the peptide concentration ranged from 1 to 32 μM (in H2O). 2 μL of the sample solution was cast onto a freshly cleaved mica surface and dried. The data obtained by the SmartScan program (Park Systems, Korea) was analyzed using the XEI program (Park Systems, Korea).
The CD spectroscopy was performed in the same manner as in Test Example 2 and the AFM was performed using the NX10 system (Park Systems, Korea) in a non-contact mode with PPP-NCHR AFM probes (Nanosensors, Switzerland). The peptide complex concentration ranged from 1 to 32 μM (in H2O). 2 μL of the sample solution was cast onto a freshly cleaved mica surface and dried. The data obtained by the SmartScan program (Park Systems, Korea) were analyzed using the XEI program (Park Systems, Korea).
The peptide complexes of Examples 37-40 were imaged by AFM. 25 μM of the peptide complex was dissolved in distilled water, sonicated for 5 minutes, incubated overnight and dropped on mica for measurement.

[3] = Table 11, peptide complexes of Examples 37-97
[4] = Table 14, coil-rod-coil peptide complexes
[5] = Table 13, cyclic peptide complexes
[6] = Table 10, hydrophobic peptides of Examples 1-36
[7] = Table 9, linear and cyclic αm-PEG10 peptide complexes, in H2O

RRRAUAUAUAUAUAUAUAUAUAUA(PEG8)2 [Example 62]
θ222 nm/θ208 nm ratio [1, 3]: 1.08 | Average diameter (nm) [2]: 110-150 nm | AFM morphology [2]: Vesicle

(PEG8)2AUAUAUAUAUAUAUA(PEG8)2 [Example 124]
[θ]222/[θ]208 [1, 4]: 0.78

Example 39: peptide complex (Wαm-RGD), SEQ ID NO 39 (A[Aib]A[Aib]A[Aib]A[Aib]A[Aib]A[Aib]A[Aib]AGRGDRGDG)
θ222 nm/θ208 nm ratio [1, 3]: 0.7 | average diameter ([2]; AFM): 20 nm | self-assembly behavior in an aqueous solvent ([2]; AFM): self-assembled into spherical particles such as micelles; also recorded: micelle particles | average height ([2]; AFM, FIG. 80): 2-4 nm | length of micelle particles ([2]; AFM, FIG. 80): 6-10 nm | Average diameter (nm) [2]: 20 nm | AFM morphology [2]: Micelle

WAUAUAUAUAUGHHHHHHHHHHGRGDRGDRGDG [Example 105]
[θ]222/[θ]208 [1, 5]: 0.38

RRRRAUAUAUAUAUAUAUAUAUAUA(PEG8)2 (RRRRAXAXAXAXAXAXAXAXAXAXA; (PEG8)2 C-terminal; SITE 6 2-aminoisobutyric acid; SITE 8 2-aminoisobutyric acid; SITE 10 2-aminoisobutyric acid; SITE 12 2-aminoisobutyric acid; SITE 14 2-aminoisobutyric acid; SITE 16 2-aminoisobutyric acid; SITE 18 2-aminoisobutyric acid; SITE 20 2-aminoisobutyric acid; SITE 22 2-aminoisobutyric acid; SITE 24 2-aminoisobutyric acid) [Example 63]
θ222 nm/θ208 nm ratio [1, 3]: 1.03 | self-assembly behavior in an aqueous solvent ([2]; AFM): self-assembles into spherical particles | Average diameter (nm) [2]: 20-50 nm | AFM morphology [2]: Micelle

RAUAUAUAUAUAUAUAUAUAUARGDRGDRGDRGD [Example 65]
θ222 nm/θ208 nm ratio [1, 3]: 0.94 | Average diameter (nm) [2]: 20 nm | AFM morphology [2]: Micelle

(PEG8)AUAUAUAUAUAUAUA(PEG8)2 [Example 120]
[θ]222/[θ]208 [1, 4]: 0.83

(PEG2)5RRRRRR(PEG2)5WAUAUAUAUAUAUAUAU [Example 111]
[θ]222/[θ]208 [1, 5]: 0.95

AUAUAUAUA [Example 2]
θ222 nm/θ208 nm ratio [1, 6]: 0.72

(PEG8)3AUAUAUAUAUAUAUAUAUAUA(PEG8)3 [Example 126]
[θ]222/[θ]208 [1, 4]: 1.18

WAUAUAUAUAUAUAUAUGHHHHHHHHHHGRGDRGDRGDG [Example 108]
[θ]222/[θ]208 [1, 5]: 0.83

RGDRGDAUAUAUAUAUAUAUAUAUAUARR [Example 73]
θ222 nm/θ208 nm ratio [1, 3]: 1.1

(PEG8)2AUAUAUAUA(PEG8)2 [Example 123]
[θ]222/[θ]208 [1, 4]: 0.6

WAUAUAUAUGHHHHHHHHHHGRGDRGDRGDG [Example 104]
[θ]222/[θ]208 [1, 5]: 0.2

RAUAUAUAUAUAUAUAUAUAUAGRGDRGDRGDRGDG [Example 67]
minimum at 222 and 208 nm in the spectra ([1]; Table 11): no minimum was observed

(PEG8)AUAUAUAUAUAUAUAUAUAUA(PEG8)2 [Example 121]
[θ]222/[θ]208 [1, 4]: 1.04

RGDRGDRGDRGDAUAUAUAUAUAUAUAUAUAUARR [Example 75]
minimum at 222 and 208 nm in the spectra ([1]; Table 11): no minimum was observed

WAUAUAUAUAUAUAU(PEG2)5 [Example 101]
[θ]222/[θ]208 [1, 7]: 1.01 | [θ]222/[θ]208 [1, 5]: 1.01

WAUAUAUAUAUAUAUAUAU(PEG2)5 [Example 51]
θ222 nm/θ208 nm ratio [1, 3]: 1.19

Example 43: peptide complex (Wαm-RGD, Wαm-GS), SEQ ID NO 43 (AXAXAXAXAXAXAXAXAXAXAGSGSG; SITE 2 2-aminoisobutyric acid; SITE 4 2-aminoisobutyric acid; SITE 6 2-aminoisobutyric acid; SITE 8 2-aminoisobutyric acid; SITE 10 2-aminoisobutyric acid; SITE 12 2-aminoisobutyric acid; SITE 14 2-aminoisobutyric acid; SITE 16 2-aminoisobutyric acid; SITE 18 2-aminoisobutyric acid; SITE 20 2-aminoisobutyric acid)
θ222 nm/θ208 nm ratio [1, 3]: 1.15

AUAUAUAUAUAUAUA [Example 8]
θ222 nm/θ208 nm ratio [1, 6]: 1.13

GSGSGAUAUAUAUAUAUAUAUAUAUAGSGSG [Example 117]
[θ]222/[θ]208 [1, 4]: 1.07

WAUAUAUAUAUAUAUAU(PEG2)5 [Example 50]
[θ]222/[θ]208 [1, 7]: 1.10 | θ222 nm/θ208 nm ratio [1, 3]: 1.10

EAUAUAUAUAUAUAUAUAUAUARGDRGDRGD (EA[Aib]A[Aib]A[Aib]A[Aib]A[Aib]A[Aib]A[Aib]A[Aib]A[Aib]A[Aib]ARGDRGDRGD) [Example 94]
θ222 nm/θ208 nm ratio [1, 3]: 1.06

GSGSGSGSGAUAUAUAUAUAUAUAUAUAUAGSGSGSGSG [Example 118]
[θ]222/[θ]208 [1, 4]: 1.02

RGDRGDRGDRGDAUAUAUAUAUAUAUAUAUAUAR [Example 72]
minimum at 222 and 208 nm in the spectra ([1]; Table 11): no minimum was observed

WAUAUAUAUAUAUAUAU(PEG2)5RGDRGD(PEG2)5 [Example 110]
[θ]222/[θ]208 [1, 5]: 1.06

GSGAUAUAUAUAUAUAUAUAUAUAGSG [Example 116]
[θ]222/[θ]208 [1, 4]: 1.15

WAUAUAUAUAUAU(PEG2)5 [Example 48]
[θ]222/[θ]208 [1, 7]: 0.88 | θ222 nm/θ208 nm ratio [1, 3]: 0.88

WAUAUAUAU(PEG2)5 [Example 46]
θ222 nm/θ208 nm ratio [1, 3]: 0.72

WAUAUAUAUAUAU(PEG2)5 [Example 100]
[θ]222/[θ]208 [1, 7]: 0.95 | [θ]222/[θ]208 [1, 5]: 0.95

(PEG8)2AUAUAUAUAUAUAUAUAUAUA(PEG8) [Example 122]
[θ]222/[θ]208 [1, 4]: 1.06

WAUAUAUAUAUAUAUAUAU(PEG2)5 [Example 103]
[θ]222/[θ]208 [1, 5]: 1.21

(PEG8)AUAUAUAUA(PEG8)2 [Example 119]
[θ]222/[θ]208 [1, 4]: 0.61

WAUAUAUAUAUAUAU(PEG2)5 [Example 49]
[θ]222/[θ]208 [1, 7]: 1.05 | θ222 nm/θ208 nm ratio [1, 3]: 1.05

RGDRGDRGDAUAUAUAUAUAUAUAUAUAUARR [Example 74]
θ222 nm/θ208 nm ratio [1, 3]: 1.11

Example 45: peptide complex (Wαm-RGD, Wαm-GS), SEQ ID NO 45 (A[Aib]A[Aib]A[Aib]A[Aib]A[Aib]A[Aib]A[Aib]A[Aib]A[Aib]A[Aib]AGSGSGSGSG)
θ222 nm/θ208 nm ratio [1, 3]: 1.09

(PEG10)2AUAUAUAUAUAUAUAUAUAUA(PEG10)2 [Example 127]
[θ]222/[θ]208 [1, 4]: 1.2

WAUAUAUAUAUAUAUAUAUGHHHHHHHHHHGRGDRGDRGDG [Example 109]
[θ]222/[θ]208 [1, 5]: 0.89

WAUAUAUAUAUAUGHHHHHHHHHHGRGDRGDRGDG [Example 106]
[θ]222/[θ]208 [1, 5]: 0.65

WAUAUAUAUAUAUAUGHHHHHHHHHHGRGDRGDRGDG [Example 107]
[θ]222/[θ]208 [1, 5]: 0.71

AUAUAUAUAUAUAUAUAUAUA [Example 14]
θ222 nm/θ208 nm ratio [1, 6]: 1.26 | α-helix structure (in words) ([1]; from CD spectra): monomeric, nonpolar and perfect α-helix (MNP-helix) structure
